Data as given in patent publication US8247211B2, “Glycopeptide antibiotics” (American Cyanamid Company, priority 2001, dated 2012).

Tests used:
Test in all cases: In vitro antibacterial evaluation: minimum inhibitory concentration (MIC), broth dilution method
Format in all cases: cell-based
[1] = test system: Enterococcus sp.
Procedure, shortened: (§1)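 NCCLS M7-A2 broth dilution; Muller-Hinton II […]; 5×10^5 CFU/mL; 64-0.06 μg/mL. MIC = lowest concentration with no growth.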

[2] = test system: Escherichia coli; details: for MIC Escherichia coli (ATCC 25922): strain ATCC 25922; for MIC Escherichia coli (GC 4559): strain GC 4559
Procedure, shortened: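 MIC read as lowest drug level preventing visible growth. Organisms at 5×10^5 CFU/mL were exposed to a 64-0.06 μg/mL dilution series in Muller-Hinton II […] following NCCLS broth dilution standard M7-A2.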

[3] = test system: Staphylococcus sp.; details: broth dilution, 18 hours at 35° C.
Procedure, shortened: as §1

[4] = test system: Streptococcus sp.
Procedure, shortened: as §1

[5] = broth dilution, inoculum 5×10^5 CFU/mL, 18 hours at 35° C.

Cyclo[glycyl-β-methylphenylalanyl-O-[4-O-[4,6-O-β-(carboxymethoxy)benzylidene]hexopyranosyl]hexonyranosyl]tyrosyl-3-(2-iminoimidazolidin-4-yl)seryl-3-(3-hexopyranosyl-2-iminoimidazolidin-4-yl)serylseryl] [Example 166]
MIC Enterococcus avium (GC 4558) [1, 5]: 32 µg/mL | MIC Enterococcus faecalis (ATCC 29212) [1, 5]: 32 µg/mL | MIC Enterococcus faecalis (GC 2242) [1, 5]: 32 µg/mL | MIC Enterococcus faecalis (GC 6189) [1, 5]: 32 µg/mL | MIC Enterococcus faecium (GC 2243) [1, 5]: 32 µg/mL | MIC Enterococcus faecium (GC 4556) [1, 5]: 32 µg/mL | MIC Enterococcus faecalis (ATCC 29212) ([1]; strain ATCC 29212): 32 µg/mL | MIC Enterococcus faecalis (GC 2242) ([1]; strain GC 2242): 32 µg/mL | MIC Enterococcus faecium (GC 2243) ([1]; strain GC 2243): 32 µg/mL | MIC Enterococcus faecium (GC 4556) ([1]; strain GC 4556): 32 µg/mL | MIC Enterococcus avium (GC 4558) ([1]; strain GC 4558): 32 µg/mL | MIC Enterococcus faecalis (GC 6189) ([1]; strain GC 6189): 32 µg/mL | MIC Escherichia coli (ATCC 25922) [2]: >64 µg/mL | MIC Escherichia coli (GC 4559) [2]: >64 µg/mL | MIC Escherichi coli (GC 4560) ([2]; strain GC 4560): 2 µg/mL | MIC Coagulase Negative Staphylococcus (GC 4547) ([3]; 5×10^5 CFU/mL): 4 µg/mL | MIC Coagulase Negative Staphylococcus (GC 4548) ([3]; 5×10^5 CFU/mL): 4 µg/mL | MIC Coagulase Negative Staphylococcus (GC 4549) ([3]; 5×10^5 CFU/mL): 4 µg/mL | MIC Coagulase Negative Staphylococcus (GC 6257) ([3]; 5×10^5 CFU/mL): 4 µg/mL | MIC Staphylococcus aureus (ATCC 29213) ([3]; 5×10^5 CFU/mL): 8 µg/mL | MIC Staphylococcus aureus (GC 1131) ([3]; 5×10^5 CFU/mL): 8 µg/mL | MIC Staphylococcus aureus (GC 4541) ([3]; 5×10^5 CFU/mL): 8 µg/mL | MIC Staphylococcus aureus-SMITH (GC 4543) ([3]; 5×10^5 CFU/mL): 4 µg/mL | MIC Staphylococcus aureus (ATCC 29213) ([3]; strain ATCC 29213): 8 µg/mL | MIC Staphylococcus aureus (GC 1131) ([3]; strain GC 1131): 8 µg/mL | MIC Staphylococcus aureus (GC 4541) ([3]; strain GC 4541): 8 µg/mL | MIC Staphylococcus aureus-SMITH (GC 4543) ([3]; strain GC 4543): 4 µg/mL | MIC Coagulase Negative Staphylococcus (GC 4547) ([3]; strain GC 4547): 4 µg/mL | MIC Coagulase Negative Staphylococcus (GC 4548) ([3]; strain GC 4548): 4 µg/mL | MIC Coagulase Negative Staphylococcus (GC 4549) ([3]; strain GC 4549): 4 µg/mL | MIC Coagulase Negative Staphylococcus (GC 6257) ([3]; strain GC 6257): 4 µg/mL | MIC Streptococcus pneumoniae (ATCC 6301) [4, 5]: 1 µg/mL | MIC Streptococcus pneumoniae (GC 1894) [4, 5]: 1 µg/mL | MIC Streptococcus pneumoniae (ATCC 6301) ([4]; strain ATCC 6301): 1 µg/mL | MIC Streptococcus pneumoniae (GC 1894) ([4]; strain GC 1894): 1 µg/mL

Di-N-(4-tert-butylbenzyl)-cyclo[glycyl-β-methylphenylalanyl-O-(4-O-hexopyranosylhexopyranosyl)tyrosyl-3-(2-iminoimidazolidin-4-yl)seryl-3-(3-hexopyranosyl-2-iminoimidazolidin-4-yl)serylseryl] [Example 60a]
MIC Enterococcus avium (GC 4558) ([1]; Enterococcus avium (GC 4558), broth dilution, 18 hours at 35° C.): 128 µg/mL | MIC Enterococcus faecalis (ATCC 29212) ([1]; Enterococcus faecalis (ATCC 29212), broth dilution, 18 hours at 35° C.): >128 µg/mL | MIC Enterococcus faecalis (GC 2242) ([1]; Enterococcus faecalis (GC 2242), broth dilution, 18 hours at 35° C.): >128 µg/mL | MIC Enterococcus faecalis (GC 2691) ([1]; Enterococcus faecalis (GC 2691), broth dilution, 18 hours at 35° C.): >128 µg/mL | MIC Enterococcus faecalis (GC 3059) ([1]; Enterococcus faecalis (GC 3059), broth dilution, 18 hours at 35° C.): >128 µg/mL | MIC Enterococcus faecalis (GC 4552) ([1]; Enterococcus faecalis (GC 4552), broth dilution, 18 hours at 35° C.): >128 µg/mL | MIC Enterococcus faecalis (GC 4553) ([1]; Enterococcus faecalis (GC 4553), broth dilution, 18 hours at 35° C.): 128 µg/mL | MIC Enterococcus faecalis (GC 4554) ([1]; Enterococcus faecalis (GC 4554), broth dilution, 18 hours at 35° C.): >128 µg/mL | MIC Enterococcus faecalis (GC 6189) ([1]; Enterococcus faecalis (GC 6189), broth dilution, 18 hours at 35° C.): >128 µg/mL | MIC Enterococcus faecium (GC 2243) ([1]; Enterococcus faecium (GC 2243), broth dilution, 18 hours at 35° C.): >128 µg/mL | MIC Enterococcus faecium (GC 4556) ([1]; Enterococcus faecium (GC 4556), broth dilution, 18 hours at 35° C.): >128 µg/mL | MIC Enterococcus faecium (GC 4557) ([1]; Enterococcus faecium (GC 4557), broth dilution, 18 hours at 35° C.): 128 µg/mL | MIC Enterococcus faecalis (ATCC 29212) ([1]; strain ATCC 29212): >128 µg/mL | MIC Enterococcus faecalis (GC 2242) ([1]; strain GC 2242): >128 µg/mL | MIC Enterococcus faecium (GC 2243) ([1]; strain GC 2243): >128 µg/mL | MIC Enterococcus faecalis (GC 2691) ([1]; strain GC 2691): >128 µg/mL | MIC Enterococcus faecalis (GC 3059) ([1]; strain GC 3059): >128 µg/mL | MIC Enterococcus faecalis (GC 4552) ([1]; strain GC 4552): >128 µg/mL | MIC Enterococcus faecalis (GC 4553) ([1]; strain GC 4553): 128 µg/mL | MIC Enterococcus faecalis (GC 4554) ([1]; strain GC 4554): >128 µg/mL | MIC Enterococcus faecium (GC 4556) ([1]; strain GC 4556): >128 µg/mL | MIC Enterococcus faecium (GC 4557) ([1]; strain GC 4557): 128 µg/mL | MIC Enterococcus avium (GC 4558) ([1]; strain GC 4558): 128 µg/mL | MIC Enterococcus faecalis (GC 6189) ([1]; strain GC 6189): >128 µg/mL | MIC Escherichia coli (ATCC 25922) [2]: >128 µg/mL | MIC Escherichia coli (GC 4559) [2]: >128 µg/mL | MIC Escherichia coli (GC 4560) ([2]; strain GC 4560): 16 µg/mL | MIC Coagulase Negative Staphylococcus (GC 4547) [3]: >128 µg/mL | MIC Coagulase Negative Staphylococcus (GC 4548) [3]: >128 µg/mL | MIC Coagulase Negative Staphylococcus (GC 4549) [3]: >128 µg/mL | MIC Coagulase Negative Staphylococcus (GC 4551) [3]: >128 µg/mL | MIC Coagulase Negative Staphylococcus (GC 6257) [3]: >128 µg/mL | MIC Staphylococcus aureus (ATCC 29213) [3]: >128 µg/mL | MIC Staphylococcus aureus (GC 1131) [3]: >128 µg/mL | MIC Staphylococcus aureus (GC 3051) [3]: >128 µg/mL | MIC Staphylococcus aureus (GC 3053) [3]: >128 µg/mL | MIC Staphylococcus aureus (GC 4541) [3]: >128 µg/mL | MIC Staphylococcus aureus (GC 4542) [3]: >128 µg/mL | MIC Staphylococcus aureus (GC 4544) [3]: >128 µg/mL | MIC Staphylococcus aureus (GC 4545) [3]: >128 µg/mL | MIC Staphylococcus aureus SMITH (GC 4543) [3]: >128 µg/mL | MIC Staphylococcus haemolyticus (GC 4546) [3]: >128 µg/mL | MIC Staphylococcus aureus (ATCC 29213) ([3]; strain ATCC 29213): >128 µg/mL | MIC Staphylococcus aureus (GC 1131) ([3]; strain GC 1131): >128 µg/mL | MIC Staphylococcus aureus (GC 3051) ([3]; strain GC 3051): >128 µg/mL | MIC Staphylococcus aureus (GC 3053) ([3]; strain GC 3053): >128 µg/mL | MIC Staphylococcus aureus (GC 4541) ([3]; strain GC 4541): >128 µg/mL | MIC Staphylococcus aureus (GC 4542) ([3]; strain GC 4542): >128 µg/mL | MIC Staphylococcus aureus (GC 4544) ([3]; strain GC 4544): >128 µg/mL | MIC Staphylococcus aureus (GC 4545) ([3]; strain GC 4545): >128 µg/mL | MIC Staphylococcus haemolyticus (GC 4546) ([3]; strain GC 4546): >128 µg/mL | MIC Coagulase Negative Staphylococcus (GC 4547) ([3]; strain GC 4547): >128 µg/mL | MIC Coagulase Negative Staphylococcus (GC 4548) ([3]; strain GC 4548): >128 µg/mL | MIC Coagulase Negative Staphylococcus (GC 4549) ([3]; strain GC 4549): >128 µg/mL | MIC Coagulase Negative Staphylococcus (GC 4551) ([3]; strain GC 4551): >128 µg/mL | MIC Coagulase Negative Staphylococcus (GC 6257) ([3]; strain GC 6257): >128 µg/mL | MIC Staphylococcus aureus-SMITH (GC 4543) ([3]; strain SMITH GC 4543): >128 µg/mL | MIC Streptococcus agalactiae (GC 4564) ([4]; Streptococcus agalactiae (GC 4564), broth dilution, 18 hours at 35° C.): >128 µg/mL | MIC Streptococcus pneumoniae (ATCC 6301) ([4]; Streptococcus pneumoniae (ATCC 6301), broth dilution, 18 hours at 35° C.): >128 µg/mL | MIC Streptococcus pneumoniae (GC 1894) ([4]; Streptococcus pneumoniae (GC 1894), broth dilution, 18 hours at 35° C.): 64 µg/mL | MIC Streptococcus pneumoniae (GC 4565) ([4]; Streptococcus pneumoniae (GC 4565), broth dilution, 18 hours at 35° C.): 128 µg/mL | MIC Streptococcus pyogenes (GC 4563) ([4]; Streptococcus pyogenes (GC 4563), broth dilution, 18 hours at 35° C.): >128 µg/mL | MIC Streptococcus pneumoniae (ATCC 6301) ([4]; strain ATCC 6301): >128 µg/mL | MIC Streptococcus pneumoniae (GC 1894) ([4]; strain GC 1894): 64 µg/mL | MIC Streptococcus pyogenes (GC 4563) ([4]; strain GC 4563): >128 µg/mL | MIC Streptococcus agalactiae (GC 4564) ([4]; strain GC 4564): >128 µg/mL | MIC Streptococcus pneumoniae (GC 4565) ([4]; strain GC 4565): 128 µg/mL
